{"source": "patent US20030162834A1", "about": "“Natural physiologically active material effective on fish diseases and fish food containing the material” (priority 1998, published 2003)", "key": {"[1]": {"assay": "Growth trial: tiger puffer fed basal diet supplemented with 0.5% octanoic acid", "format": "in vivo", "experimental": "The inventors conducted trials using tiger puffer to test whether the octanoic acid adversely affects growth of fish. Two trial groups were prepared; i.e., one group fed the basal diet supplemented with 0.5% of octanoic acid (5 g of octanoic acid added for 1 kg of diet), and the other group fed the basal diet alone. Trial conditions were that 50 pieces of tiger puffer for each group were put in a 1-t water tank, and the puffs were fed twice per day, i.e., in the morning and evening. A bleeding trial period was 45 days and the water temperature was 25+−1 degrees centigrade during the trial period."}, "[2]": {"tested_on": "Heterobothrium okamotoi", "assay": "Trial 1: in vitro immersion of oncomiracidia and gill-attached larvae in fatty acid seawater solutions", "format": "cell-based", "conditions": "1 mM in seawater, 20 degrees centigrade", "experimental": "(§1) Fatty acids having carbon number C2, C4 and C6-C10 were each dissolved in seawater at 1 mM concentration, and oncomiracidia of Heterobothrium okamotoi and larvae attaching to the gill were immersed in the seawater solutions. After 2 hours from the start of immersion, the efficacy of the fatty acids was investigated by counting the number of dead oncomiracidia and the number of larvae dropping down from the gill. More than 30 individuals of parasites were transferred to each group.\n(§2) For any of the groups, the trial was made under condition of 20 degrees centigrade."}, "[3]": {"tested_on": "Cryptocaryon irritans", "assay": "Trial 1: in vitro immersion of theronts in fatty acid seawater solutions", "format": "cell-based", "conditions": "0.5 mM in seawater, 20 degrees centigrade; listed as C8", "experimental": "(§3) For Cryptocaryon irritans, fatty acids having carbon number C2, C4 and C6-C10 were each dissolved in seawater at 0.5 mM concentration, and theronts of Cryptocaryon irritans were immersed in the seawater solutions. After 1 hour from the start of immersion, the efficacy of the fatty acids was investigated by counting the number of dead theronts. More than 200 individuals of parasites were transferred to each group.\nas §2"}, "[4]": {"tested_on": "parasites (Heterobothrium okamotoi, Cryptocaryon irritans)", "assay": "Trial 1: overall statements on efficacy of fatty acids against parasites", "format": "cell-based", "conditions": "Trial 1 summary; C12 at a low concentration, not the same condition", "experimental": "as §1, §3, §2"}, "[5]": {"tested_on": "Cryptocaryon irritans", "assay": "Trial 4: oral octanoic acid, Cryptocaryon irritans challenge trial on red sea bream", "format": "in vivo", "conditions": "5 g octanoic acid per 1 kg pellets", "experimental": "Fish tested: Red sea bream weighing approximately 9.8 g in average.\n(§4) Trial groups: Two groups, i.e., an octanoic-acid added group in which fish were fed diets added with octanoic acid, and a control group in which fish were fed diets not added with octanoic acid. The feeding rate was 3% of fish weight/day for each group.\nTrial diets: The diets added with octanoic acid were prepared by spraying 5 g of octanoic acid to 1 kg of commercially available pellets for red sea bream. The control group fish were fed the commercially available pellets for red sea bream.\nChallenge trial: Each 30 pieces of fish from among a shoal of fish, in which no diseases such as Cryptocaryon irritans infection were found, were put in a 100-liter water tank, and were fed the respective trial diets. After 5 days, approximately 2000 individuals of ([…] theronts) of Cryptocaryon irritans were put in each water tank to infect the fish while water flow was stopped for 1 hour. Then, bleeding was continued for 15 days. During the trial period, the water temperature was in the range of 22.5-23.2 degrees centigrade and the water was exchanged at 20 cycles/day.\nEvaluation was made by sampling 5 pieces of fish from each group after 3 days from the start of the challenge, comparing the number of parasites attaching to the gill and the body surface of each infected fish, and comparing mortality of the fish during the trial period between the respective groups."}, "[6]": {"tested_on": "Benedenia seriolae", "assay": "Trial 5: oral octanoic acid, field trial on amberjack", "format": "in vivo", "conditions": "8 g octanoic acid per 1 kg pellets, 9 days", "experimental": "(§5) Fish tested: Amberjack weighing approximately 117 g in average.\nas §4\n(§6) Trial diets: The diets added with octanoic acid were prepared by spraying 8 g of octanoic acid to 1 kg of commercially available pellets for amberjack. The control group fish were fed the commercially available pellets for amberjack.\n(§7) Trial: The trial was conducted using off-shore net pens of 10×10×9 m placed in the field sea. Each 15000 pieces of fish for each group were treated with a parasiticide containing commercially available hydrogen peroxide as a main ingredient, and then put in each net pen. At this time, it was confirmed that Heteraxine heterocerca parasitizing to the gill and Benedenia seriolae parasitizing on the body surface were eliminated, by investigating 20 pieces of fish for each group. It was also simultaneously confirmed that blood flukes (Pradeontacylix) were present in the fish, by investigating the presence of eggs in the gill filaments. Then, bleeding was continued for 9 days while feeding the trial diets. The water temperature during the trial period was in the range of 18.5-20.0 degrees centigrade.\n(§8) Evaluation was made by sampling 20 pieces of fish from each group after 9 days from the start of the bleeding, and counting and comparing the number of Heteraxine heterocerca in the gill of each sampled fish, the number of Benedenia seriolae on the body surface, and the number of eggs of blood flukes (Paradeontacylix) in the gill filaments."}, "[7]": {"tested_on": "Heteraxine heterocerca", "assay": "Trial 5: oral octanoic acid, field trial on amberjack", "format": "in vivo", "conditions": "8 g octanoic acid per 1 kg pellets, 9 days", "experimental": "as §5, §4, §6, §7, §8"}, "[8]": {"tested_on": "blood flukes (Paradeontacylix)", "assay": "Trial 5: oral octanoic acid, field trial on amberjack", "format": "in vivo", "conditions": "8 g octanoic acid per 1 kg pellets, 9 days", "experimental": "as §5, §4, §6, §7, §8"}, "[9]": {"assay": "Trial 9: tolerance of tiger puffer to immersion in seawater containing octanoic acid", "format": "in vivo", "excerpt": "Each group, i.e., 130 g of tiger puffer, was immersed in 2-liter seawater containing octanoic acid at 100 ppm, 200 ppm and 400 ppm, followed by observation."}, "[10]": {"tested_on": "Cryptocaryon irritans", "assay": "Trial 10: immersion of infected tiger puffer in seawater containing octanoic acid", "format": "in vivo", "conditions": "200 ppm for 2 minutes, 3 hours after return to seawater", "experimental": "300 g of tiger puffer infected with Cryptocaryon irritans was immersed in seawater containing 200 ppm of octanoic acid for 2 minutes, and then returned to seawater again. After 3 hours from return to seawater, the parasites Cryptocaryon irritans and their situations and numbers were observed."}}, "data": [{"compound": "CCCCCCCC(=O)O", "note": "[octanoic acid]", "values": [{"measurement": "died fish", "setting": "[1]; continued for succeeding seven months", "result": "no died fish"}, {"measurement": "adverse effects on puffer growth", "setting": "[1]; in vivo", "result": "adverse effects on the puffer growth were not found"}, {"measurement": "content of octanoic acid in the edible muscle", "setting": "[1]; in vivo", "result": "no octanoic acid was detected"}, {"measurement": "emergence of dead oncomiracidia", "setting": "[2]", "result": "emerged earliest"}, {"measurement": "larvae dropping down from the gill (drop-down rate)", "setting": "[2]; 2 hours", "result": "highest drop-down rate"}, {"measurement": "emergence of dead theronts", "setting": "[3]", "result": "emerged earliest"}, {"measurement": "efficacy against parasites", "setting": "[4]", "result": "most effective"}, {"measurement": "parasites on gill and body surface after 3 days from the challenge", "setting": "[5]", "result": "no parasites were found"}, {"measurement": "parasites at the end of the trial", "setting": "[5]; 15 days", "result": "no parasites were found"}, {"measurement": "fish mortality during the trial", "setting": "[5]; 15 days, control all dead at the 8-th day", "result": "no fish died"}, {"measurement": "number of Benedenia seriolae on the body surface, versus control", "setting": "[6]", "result": "no appreciable difference"}, {"measurement": "number of Heteraxine heterocerca in the gill, versus control", "setting": "[7]", "result": "apparently fewer"}, {"measurement": "eggs of blood flukes in the gill filaments", "setting": "[8]", "result": "no eggs of blood flukes were observed"}, {"measurement": "condition when returned to seawater", "setting": "[9]; after immersion at 100 ppm", "result": "no abnormality"}, {"measurement": "time to restore to a normal condition after return to seawater", "setting": "[9]; after immersion at 200 ppm", "result": "approximately 30 minutes"}, {"measurement": "time to restore to a normal condition after return to seawater", "setting": "[9]; after immersion at 400 ppm, almost dying condition", "result": "approximately 60 minutes"}, {"measurement": "observation of fish after 60 minutes", "setting": "[9]; immersion, 100 ppm octanoic acid in seawater", "result": "a swimming activity of the fish was slightly lowered, but no abnormality was found in the fish"}, {"measurement": "time at which fish began to lie down", "setting": "[9]; immersion, 200 ppm", "result": 60, "unit": "min"}, {"measurement": "time until swimming activity was apparently lowered", "setting": "[9]; immersion, 200 ppm", "result": 30, "unit": "min"}, {"measurement": "time at which fish became almost dying", "setting": "[9]; immersion, 400 ppm", "result": 9, "unit": "min"}, {"measurement": "time at which fish began to lie down", "setting": "[9]; immersion, 400 ppm", "result": 3, "unit": "min"}, {"measurement": "observation of fish returned to seawater", "setting": "[9]; observed for 7 days after immersion", "result": "no abnormality was found"}, {"measurement": "number of parasites attaching to the body surface", "setting": "[10]; before treatment 193/2 cm^2", "result": "261 /2 cm^2"}, {"measurement": "number of parasites attaching to the gill", "setting": "[10]; before treatment 624", "result": 356, "unit": "per branchial arch"}, {"measurement": "body-surface parasites that showed movement and seemed still alive", "setting": "[10]; of 261", "result": 9}, {"measurement": "gill parasites that showed movement and seemed still alive", "setting": "[10]; of 356", "result": 193}]}]}
